Measured values from a melting point compilation (Tetko et al.; mined from patent text by program, amines drawn as free bases though some values may be those of a salt).

Row | SMILES | melting point [°C]
1 | CC1(C)CC(=O)CC(C)(C)N1CCCCCCN1C(C)(C)CC(=O)CC1(C)C | 151 to 152
2 | O=C(CBr)C(O)(CBr)c1ccc(F)cc1 (stereo unspecified) | 90
3 | CCCC(=O)Nc1c(C)cccc1C | 134 to 136
4 | COC(=O)C(C(C)C)N1CC(NC(=O)Cc2ccccc2)C1=O (stereo unspecified) | 105 to 107
5 | Fc1cccc2c(CCc3ccsc3)ccnc12 | 96 to 97
6 | CC1(C)OC(=O)Nc2ccc(-c3cccc(F)c3F)cc21 | 166 to 167
7 | Cn1cc(-c2ccccc2)c(=O)c(-c2ccco2)c1 | 191 to 192
8 | CCCC(=O)c1cnc2c(C)cccc2c1Nc1ccc(Cl)cc1C | 166 to 167
9 | O=C1CCC(Cc2ccc(Cl)cc2)CN1 (stereo unspecified) | 118 to 120
10 | CN1CC=C(C(=O)N2c3ccccc3NC(=O)c3cscc32)CC1 | 210 to 212
11 | CCCCSc1nc(N(C)C(C)=O)c(C#N)s1 | 40
12 | CCOC(=O)Cn1cc(C(=O)NCc2ccc(Cl)cc2Cl)c(OCC)n1 | 120 to 121
13 | CC(C)(C)c1ccc(C(=O)Nc2cn3cc(-c4cccnc4)ccc3n2)cc1 | 288 to 289
14 | CC(C)(C)OC(=O)NCC1(CC(=O)O)CCCCC1 | 109 to 111
15 | CSc1c(C(=O)NN=Cc2ccc(Cl)cc2)[nH]c2ccccc12 | 232 to 235
16 | CC(C)(C)c1ccccc1N1CCN(C(=O)c2nc[nH]n2)CC1 | 295
17 | CCOC(=O)c1n[nH]c(C(=O)OCC)c1C(O)c1ccc(Cl)cc1[N+](=O)[O-] (stereo unspecified) | 60
18 | COC(=O)C1CN(C(=O)c2cc(OC)c(OC)c(OC)c2)CCN1C(=O)OC(C)(C)C (stereo unspecified) | 163 to 164
19 | CC1(C)C=Cc2c(ccc3c2OCC2(O)c4ccc(O)cc4OC32)O1 (single isomer, unassigned; (-)) | 95 to 101
20 | COc1ccc(Oc2c(Cl)cc([N+](=O)[O-])cc2Cl)cc1C(C)C | 75 to 77
21 | CC1(C)OCCC2C(C3(O)CCSC3)C(=O)N21 (stereo unspecified) | 113 to 115
22 | Oc1c2c(nn1-c1ccccn1)CCCC2 | 121 to 122
23 | O=C(c1c[nH]c2c1ccc1c3ccccc3[nH]c12)C(F)(F)F | > 295
24 | Nc1nc(-c2ccco2)c(C(=O)C2CCOCC2)s1 | 184 to 188
25 | CC(=NOCCc1ccc(C)cc1)C(=O)O | 106 to 108
26 | O=C(NCCO)c1cccc(-c2cccc3nn(Cc4cccc(C(F)(F)F)c4)cc23)n1 | 150 to 151

Row | SMILES | melting point [°C]
27 | O=[N+]([O-])c1cccc(Oc2cccc(-c3nnc(Nc4ccc(Cl)c(Cl)c4)s3)c2)c1 | 210 to 212
28 | CNC1=NS(=O)(=O)N=C1NCCSCc1ccc(CN(C)C)s1 | 60.5 to 66
29 | COc1ccc(Nc2nc(-c3ccccc3)cc(N3CCC(OC(=O)CCC(=O)O)CC3)n2)cc1Cl | 218 to 220
30 | Fc1ccc(C(F)(F)F)cc1-c1cccn2nc(Cl)nc12 | 88 to 89
31 | COC(=O)NC(Cc1c[nH]c2ccccc12)C(=O)OCc1cc(C)cc(C)c1 (stereo unspecified) | 128 to 129
32 | CCOC(=O)Nc1c(C#N)c(C(F)(F)F)nn1-c1c(Cl)cc(C(F)(F)F)cc1Cl | 177 to 179
33 | COc1ccc(-c2c3ccc(OC)cc3cc3sc4ccccc4c23)cc1 | 158 to 159
34 | CCS(=O)(=O)CCOc1cc(CCCOc2nn(Cc3ccccc3)cc2CC(=O)O)n(Cc2ccc(Cl)cc2Cl)n1 | 100 to 101
35 | O=C1CCC(c2c[nH]c3ccc(F)cc23)CC1 | 112 to 114
36 | O=C(O)c1cccc2c1CCc1cc(O)ccc1S2 | 210 to 211
37 | CS(=O)(=O)c1ccc(-c2cc(C(F)F)nn2-c2cccc(C(F)(F)F)c2)cc1F | 110 to 111
38 | O=C(Nc1ccc(S(=O)(=O)C(F)(F)F)cc1Cl)c1cc(-c2ccc(F)cc2F)cc(C23CC4CC(CC(C4)C2)C3)c1O | 177 to 178
39 | CC12CCC(=O)C=C1CCC1C2=CCC2(C)C1CCC2(O)C(=O)CCl (stereo unspecified) | 227 to 228
40 | CCCCCCCCCCCCOc1ccc(-c2ccc(CCCCC(=O)OCC)cc2)cc1 | 99
41 | Cc1noc(C)c1S(=O)(=O)n1c(CCCC(=O)O)cc2cc(Cl)ccc21 | 150 to 154
42 | O=C1NC(=O)c2cc(NC3CCCCC3)c(NC3CCCCC3)cc21 | 170 to 175
43 | CC1CCN(Cc2ccc(C=CC(=O)Nc3ccc(-c4ccc(Cl)cc4)cc3)cc2)CC1 | 207 to 208
44 | O[C@H]1c2ccc(OCc3ccccc3)cc2OC[C@H]1Oc1cccnc1 (relative stereo) | 73 to 75
45 | Cc1oc(-c2ccc(C(F)(F)F)cc2)cc1C(=O)Nc1cccc(CCC(=O)O)c1 | 200 to 201
46 | CCc1cc(C(C)O)nn1-c1ccc([N+](=O)[O-])cc1 (stereo unspecified) | 127 to 128
47 | Cc1cc(NC(=O)C(C)(O)COc2cccc(F)c2)ccc1[N+](=O)[O-] (stereo unspecified) | 83 to 86
48 | O=C(O)COc1ccc(-c2c3ccccc3cc3sc4cc(OCC(=O)O)ccc4c23)cc1 | 220 to 222
49 | O=S(=O)(Nc1nc(Cl)cnc1OCc1ccco1)c1ccc(Cl)s1 | 130 to 133
50 | O=C(O)CCC(=O)N(CCCOc1ccc(C(=O)O)cc1)c1ccc(Cl)cc1 | 155 to 158
51 | Nc1ccc(C(=O)O)c2c1OCCO2 | 186
52 | CCC(Oc1ccc(-c2ccc(C#N)c(Cl)c2)cc1)C(O)CCc1cccnc1 (stereo unspecified) | 99 to 100

Row | SMILES | melting point [°C]
53 | Cc1ccccc1C(=O)Nc1nc2ccccc2c(=O)n1C | 185 to 186
54 | CC(Oc1ncn(-c2ccc(C(F)(F)F)cc2)n1)C(=O)O (stereo unspecified) | 215 to 218
55 | CS(=O)(=O)c1ccc(C2=C(c3ccccc3)C(=O)N(C3CC3)C2)cc1 | 144 to 146
56 | COc1cccc(-c2ccc3[nH]c4c(ccc5cc[nH]c54)c3c2)c1 | 202 to 205
57 | COc1cc2c(c(Cl)c1Cl)SC(c1ccccc1)C2=O (stereo unspecified) | 228 to 229
58 | COC(=O)c1cc(C)cc2c1OCc1ccccc1C2C(=O)Nc1c(C(C)C)cccc1C(C)C (stereo unspecified) | 136 to 138
59 | CC(C)SN(c1ccccc1)P(=O)(c1ccccc1)c1ccccc1 | 148 to 150
60 | Cc1ncc2c(c1OCC(=O)O)COC2(C)c1ccc(F)cc1 (stereo unspecified) | 184 to 186
61 | CCOC(=O)c1nsc(=O)o1 | 49
62 | O=C1CCC(c2ccccc2)(c2ccccc2)[C@@H]2CN(C(=O)Cc3ccccc3)C[C@H]12 (racemic) | 173
63 | Cc1cc(Br)c2c(c1)C(C(=O)O)c1ccccc1CO2 (stereo unspecified) | 196 to 197
64 | C=CCc1cc(C(=O)OCC)ccc1O | 67 to 70
65 | O=C(O)CCCc1cc2cc(Cl)ccc2n1S(=O)(=O)c1ccc2c(c1)OCCO2 | 131 to 134
66 | NS(=O)(=O)OCCOc1cccc(-n2ccnc2)c1 | 149 to 150
67 | CC(C)(Sc1cc(C(C)(C)C)c(O)c(C(C)(C)C)c1)Sc1cc(C(C)(C)C)c(OCCC[C@H](O)CO)c(C(C)(C)C)c1 | 68 to 71
68 | CCOc1cc(C=C2CCN(C(N)=O)C2=O)ccc1O | 204 to 205
69 | c1ccc2c(c1)OCC(CN1CCC(CNc3nc4ccccc4s3)CC1)O2 (stereo unspecified) | 133
70 | Cc1csc2nc3ccccc3c(=O)n12 | 180
71 | CCOC(=O)C(=O)Nc1cc(C#N)c(Cl)cc1[N+](=O)[O-] | 80 to 82
72 | CC(C)c1cc(N)c(S(N)(=O)=O)cc1S(N)(=O)=O | 185 to 186
73 | COCOc1ccc(C(C(c2ccccc2)c2ccc(F)cc2)C(F)(F)F)cc1 (stereo unspecified) | 85 to 88
74 | CC(=O)Nc1cccc(-c2ccc3nc(-c4cccnc4N)n(-c4ccc(CNS(=O)(=O)c5ccccc5)cc4)c3n2)c1 | 180 to 182
75 | NC1(C(=O)c2ccccc2)CCSC1 (stereo unspecified) | 147 to 149
76 | N#Cc1ccsc1C1=CC(=O)Nc2cc(-c3ccccc3F)ccc2N1 | 238 to 240
77 | OCc1cn(-c2cccc(SC(F)(F)F)c2)cn1 | 73 to 75
78 | COc1ccc(Cn2cnc3c(-c4ccco4)nc(C(F)(F)F)nc32)cc1 | 149 to 150

Row | SMILES | melting point [°C]
79 | COc1ccc(-c2csc(N(C(C)=O)c3cc4ccccc4cn3)n2)cc1OC | 164 to 165
80 | CCc1ccc(-c2cn(C)cc(-c3ccccc3)c2=O)cc1 | 143 to 145
81 | FC(F)(F)c1cccc(C(=CC2=NCCN2)c2ccc3ccccc3n2)c1 | 76.5
82 | COCCOCOc1c(C(C)(C)C)nc(C=NO)nc1C(C)(C)C | 90 to 97
83 | CCCCc1cnc2ccccc2c1Nc1ccc(C(=O)O)cc1 | 276
84 | O=C(CCC(=O)N(CCO)CCO)N(CCO)CCO | 89 to 91
85 | Fc1ccc(Cn2c(CC3CCN(Cc4ccccc4)CC3)nc3cncnc32)cc1 | 136
86 | O=C(N1CCC(n2ccc3ccccc32)CC1)C(F)(F)F | 130 to 132
87 | O=C(O)c1ccccc1C(=O)NCCCCc1cccnc1 | 132 to 135
88 | CCCCNc1cccc2c1C(=O)c1cccc(NCCCC)c1C2=O | 152 to 153
89 | Fc1ccc2[nH]cc(CC3C=CCN(Cc4ccccc4)C3)c2c1 (stereo unspecified) | 133 to 136
90 | N#CC1(C#N)C2CC(C3OC32)C1(Cl)Cl (stereo unspecified) | 229
91 | O=C1OC(OC(=O)c2cccnc2Cl)c2ccccc21 (stereo unspecified) | 137 to 138
92 | Cc1nc(C)c(C(C)(O)c2ccoc2)s1 (stereo unspecified) | 104 to 105
93 | Cc1c(Cl)cc(C(C)(C)C)c(O)c1-c1nc2cc(C#N)ccc2[nH]1 | 258
94 | N=C(N)NCCCCCOc1cccc2c1NC(=O)C(CC(=O)O)C2 (stereo unspecified) | 126 to 131
95 | Cc1cn(-c2cc([N+](=O)[O-])cc(C(F)(F)F)c2)cn1 | 118 to 119
96 | COc1cc(C(C)=O)ccc1OCCCN1CCC(c2nsc3ccccc23)CC1 | 93 to 95
97 | Cc1ccc(-c2ccc3c(c2)C=C(C(=O)Nc2ccc(CN(C)C4CCOCC4)cc2)CCC3)cc1 | 161 to 162
98 | CCOc1ccc2c(c1)n(C1CCCCC1)c(=O)n2Cc1ccc(C(=O)NC(C)(C)C)cc1OC | 186
99 | CCn1c(=O)[nH]c2cc(NC(C)=O)ccc21 | 247 to 249
100 | C=CC[C@H](NS(=O)(=O)c1ccc(OC)cc1)C(=O)OC(C)(C)C | 58 to 59
101 | COc1ccc(C2(C#Cc3ccc(C(=O)O)cc3)CCC(=O)CC2)cc1OC1CCCC1 | 170 to 171
